IC50 data for two molecules are collected here from publication PMC11990191, “Pharmacochemical Studies of Synthesized Coumarin–Isoxazole–Pyridine Hybrids” (Molecules, 2025).

The target of the test is T1, soybean lipoxygenase (sLOX) (Glycine max, UniProt P08170).
T1 construct: gene LOX1.1
T1 sequence (P08170 1-839): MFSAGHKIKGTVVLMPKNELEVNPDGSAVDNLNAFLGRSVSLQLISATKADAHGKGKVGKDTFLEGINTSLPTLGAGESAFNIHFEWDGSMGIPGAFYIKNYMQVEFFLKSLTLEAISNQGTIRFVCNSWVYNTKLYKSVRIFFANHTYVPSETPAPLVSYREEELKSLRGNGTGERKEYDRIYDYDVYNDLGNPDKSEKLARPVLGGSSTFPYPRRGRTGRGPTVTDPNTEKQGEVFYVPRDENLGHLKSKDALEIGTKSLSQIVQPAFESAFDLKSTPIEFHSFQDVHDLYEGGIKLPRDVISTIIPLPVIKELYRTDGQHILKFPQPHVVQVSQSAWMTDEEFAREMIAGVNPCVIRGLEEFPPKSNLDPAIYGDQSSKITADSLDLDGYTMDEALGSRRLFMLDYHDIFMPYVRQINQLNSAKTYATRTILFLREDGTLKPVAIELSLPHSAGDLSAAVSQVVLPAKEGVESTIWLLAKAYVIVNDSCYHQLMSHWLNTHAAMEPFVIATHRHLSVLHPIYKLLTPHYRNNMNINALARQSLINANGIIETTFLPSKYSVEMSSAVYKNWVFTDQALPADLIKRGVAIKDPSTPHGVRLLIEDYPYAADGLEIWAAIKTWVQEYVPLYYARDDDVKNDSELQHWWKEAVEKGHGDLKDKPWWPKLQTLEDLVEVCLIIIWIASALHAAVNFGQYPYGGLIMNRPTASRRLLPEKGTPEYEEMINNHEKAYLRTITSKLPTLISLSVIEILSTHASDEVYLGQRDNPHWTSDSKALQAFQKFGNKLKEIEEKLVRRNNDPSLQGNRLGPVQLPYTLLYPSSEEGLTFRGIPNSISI
The experiment in a line: UV absorbance enzyme assay at […] nm, sodium linoleate substrate, pH […]. The test is classed as biochemical. To be noted: read-out: LOX(%)/ IC50.

For the molecule `O=c1ccc2ccc(OCc3cc(-c4cccnc4)no3)cc2o1` [7a, 7-((3-(Pyridin-3-yl)isoxazol-5-yl)methoxy)-2H-chromen-2-one], the IC50 amounted to 10 µM.

Regarding `O=c1cc(OCc2cc(-c3ccncc3)no2)c2ccccc2o1` [13a, 4-((3-(Pyridin-4-yl)isoxazol-5-yl)methoxy)-2H-chromen-2-one], the IC50 came to 5 µM.
